Assay results published in publication PMC6484129, “Structure–function analyses reveal that a glucuronoyl esterase from Teredinibacter turnerae interacts with carbohydrates and aromatic compounds” (The Journal of Biological Chemistry, 2019).
Like-named read-outs stand apart in the source and are kept apart here.

Legend:
Assay in all cases: inhibition of BnzGlcA hydrolysis, coupled K-URONIC assay
Assay type in all cases: biochemical
[1] = target: T1, TtCE15A (Teredinibacter turnerae, UniProt C5BN23)
T1 construct: gene TERTU_0517
T1 sequence (C5BN23 entry or part of it): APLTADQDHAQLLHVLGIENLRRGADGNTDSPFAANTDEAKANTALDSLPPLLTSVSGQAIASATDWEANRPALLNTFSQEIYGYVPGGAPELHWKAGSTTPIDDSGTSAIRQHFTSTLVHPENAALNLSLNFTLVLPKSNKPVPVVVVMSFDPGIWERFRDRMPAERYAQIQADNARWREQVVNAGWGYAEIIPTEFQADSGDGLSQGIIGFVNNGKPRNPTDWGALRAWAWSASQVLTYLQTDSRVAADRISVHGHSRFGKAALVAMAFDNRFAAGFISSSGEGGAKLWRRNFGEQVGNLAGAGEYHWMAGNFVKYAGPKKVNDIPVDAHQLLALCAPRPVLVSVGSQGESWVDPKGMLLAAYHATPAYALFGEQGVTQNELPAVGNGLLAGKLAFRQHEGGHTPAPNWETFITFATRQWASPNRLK
Text: (§1) inhibition of BnzGlcA hydrolysis, coupled K-URONIC assay on TtCE15A

[2] = target: T2, TtCE15A (Teredinibacter turnerae, UniProt C5BN23, F174A)
T2 construct: gene TERTU_0517
T2 sequence (C5BN23 entry or part of it F174A): as the sequence (C5BN23 entry or part of it) above, with F152A counted along it
Text: as §1

[3] = target: T3, TtCE15A (Teredinibacter turnerae, UniProt C5BN23, F174D)
T3 construct: gene TERTU_0517
T3 sequence (C5BN23 entry or part of it F174D): as the sequence (C5BN23 entry or part of it) above, with F152D counted along it
Text: as §1

`COc1cc(/C=C/C(=O)O)cc(OC)c1O` [SA, sinapic acid] gave an IC50 ([1]; read-out: SA) of 560 ± 30 µM, an IC50 ([2]; read-out: SA) of 190 ± 22 µM and an IC50 ([3]; read-out: SA) of 770 ± 64 µM.
`O=C(O)/C=C/c1ccc(O)cc1` [pCoA, p-coumaric acid] was tested, and the IC50 ([1]; read-out: pCoA) was 830 ± 40 µM and the IC50 ([2]; read-out: pCoA) was 4840 ± 470 µM.
`COc1cc(/C=C/C(=O)O)ccc1O` [FA, ferulic acid] gave an IC50 ([1]; read-out: FA) of 550 ± 45 µM, an IC50 ([2]; read-out: FA) of 84 ± 5 µM and an IC50 ([3]; read-out: FA) of 400 ± 40 µM.
`CO[C@@H]1C(C(=O)O)O[C@H](O[C@H]2[C@H](O[C@@H]3CO[C@@H](O[C@H](CO)[C@H](O)[C@@H](O)CO)[C@H](O)[C@H]3O)OC[C@@H](O[C@@H]3OC[C@@H](O)[C@H](O)[C@H]3O)[C@@H]2O)[C@H](O)[C@H]1O` (stereo partly drawn) [XUXXR, 2^3-(4-O-methyl-D-glucuronyl)-α-D-xylotetraitol] gave an IC50 ([1]; 0.4 mM BnzGlcA, pH 7.5, <10% DMSO, read-out: XUXXR) of 5510 ± 280 µM.
